In experiment [1] the test system is Escherichia coli EC-1: VOGEL, mouse virulent. Description: MIC determination (CLSI), strain EC-1. In kind it is cell-based. The note with it: strain EC-1, unit assumed. On the procedure: (§1) The in vitro antibacterial activity of compounds described in the Examples was evaluated by minimum inhibitory concentration (MIC) testing according to Clinical and Laboratory Standards Institute (CLSI, formerly NCCLS) guidelines. See: Clinical and Laboratory Standards Institute. Methods for Dilution Antimicrobial Susceptibility Tests for Bacteria that Grow Aerobically; Approved Standard-Seventh Edition. CLSI document M7-A7 [ISBN 1-56238-587-9]. Clinical and Laboratory Standards Institute, 940 West Valley Road, Suite 1400, Wayne, Pa. 19087-1898 USA, 2006; also Clinical and Laboratory Standards Institute. Performance Standards for Antimicrobial Susceptibility Testing; Eighteenth Informational Supplement. CLSI document M100-S18 [ISBN1-56238-653-0].Clinical and Laboratory Standards Institute.
(§2) The following bacterial strains were used in these MIC determinations:
3) Escherichia coli EC-1: VOGEL, mouse virulent labeled as EC-1 in Tables 4 and 5;

Experiment [2] relates to Pseudomonas aeruginosa UI-18: Wild-type (PA-7). Put plainly: MIC determination (CLSI), strain PA-7. It counts as cell-based. The settings on record: strain PA-7, unit assumed. As for the experimental part: as §1, §2
1) Pseudomonas aeruginosa UI-18: Wild-type, labeled as PA-7 in Tables 4, and 5;

The mark [3] stands for this setting: generated in the same manner as in Table 4.

Each structure is given as a SMILES string.

`CC(CCn1ccc(-c2ccc(OCC3CCCO3)cc2)cc1=O)(C(=O)NO)S(C)(=O)=O` (mixture of isomers) [Example 462]: the EC-1 (MIC) in experiment [1] stood at 0.5 µg/mL. In experiment [2], this molecule gave a PA-7 (MIC) of 1 µg/mL.
On the same counts, the results for `CC1CC(=O)Nc2ccc(-c3ccn(CCC(C)(C(=O)NO)S(C)(=O)=O)c(=O)c3)cc21` (mixture of isomers) [Example 484] are over 64 µg/mL and over 64 µg/mL.
In the case of `CC(CCn1ccc(-c2ccc(C(F)(F)CO)cc2)cc1=O)(C(=O)NO)S(C)(=O)=O` (stereo not shown) [Example 69, 4-{4-[4-(1,1-difluoro-2-hydroxyethyl)phenyl]-2-oxopyridin-1(2H)-yl}-N-hydroxy-2-methyl-2-(methylsulfonyl)butanamide], the EC-1 (MIC) in experiment [1] (setting [3]) was 4 µg/mL. Also, the PA-7 (MIC) in experiment [2] (setting [3]) came to 16 µg/mL.
With `CC(CCn1ccc(-c2ccc(O)c(F)c2)cc1=O)(C(=O)NO)S(C)(=O)=O` (stereo not shown) [Example 70, 4-[4-(3-fluoro-4-hydroxyphenyl)-2-oxopyridin-1(2H)-yl]-N-hydroxy-2-methyl-2-(methylsulfonyl)butanamide], the EC-1 (MIC) in experiment [1] (setting [3]) is over 64 µg/mL. Further, the PA-7 (MIC) in experiment [2] (setting [3]) is over 64 µg/mL.
In the case of `CC(CCn1ccc(-c2ccc(OCCCN3CCOCC3)cc2)cc1=O)(C(=O)NO)S(C)(=O)=O` (stereo not shown) [Example 71, N-hydroxy-2-methyl-2-(methylsulfonyl)-4-{4-[4-(3-morpholin-4-ylpropoxy)phenyl]-2-oxopyridin-1(2H)-yl}butanamide], the EC-1 (MIC) in experiment [1] (setting [3]) stood at 2 µg/mL. This molecule gave a PA-7 (MIC) in experiment [2] (setting [3]) of 4 µg/mL.
For `CC(CCn1ccc(-c2ccc(CO)cc2)cc1=O)(C(=O)NO)S(C)(=O)=O` (stereo not shown) [Example 72, N-hydroxy-4-{4-[4-(hydroxymethyl)phenyl]-2-oxopyridin-1(2H)-yl}-2-methyl-2-(methylsulfonyl)butanamide], in that order: over 64 µg/mL and 16 µg/mL.
The molecule `CC(CCn1ccc(-c2ccc(C(=O)CO)cc2)cc1=O)(C(=O)NO)S(C)(=O)=O` (stereo not shown) [Example 73, 4-[4-(4-glycoloylphenyl)-2-oxopyridin-1(2H)-yl]-N-hydroxy-2-methyl-2-(methylsulfonyl)butanamide] displayed an EC-1 (MIC) in experiment [1] (setting [3]) of over 64 µg/mL. In addition, the PA-7 (MIC) in experiment [2] (setting [3]) amounted to 64 µg/mL.
On the same counts, the results for `CC(CCn1ccc(-c2ccc(OCCN3CCCC3)cc2)cc1=O)(C(=O)NO)S(C)(=O)=O` (stereo not shown) [Example 74] are over 64 µg/mL and over 64 µg/mL.
On the same counts, the results for `CC(CCn1ccc(-c2ccc(OCCCCO)cc2)cc1=O)(C(=O)NO)S(C)(=O)=O` (stereo not shown) [Example 75, N-hydroxy-4-{4-[4-(4-hydroxybutoxy)phenyl]-2-oxopyridin-1(2H)-yl}-2-methyl-2-(methylsulfonyl)butanamide] are 2 µg/mL and 4 µg/mL.
On the same counts, the results for `CC(CCn1ccc(-c2ccc(OCCO)c(F)c2)cc1=O)(C(=O)NO)S(C)(=O)=O` (stereo not shown) [Example 76, 4-{4-[3-fluoro-4-(2-hydroxyethoxy)phenyl]-2-oxopyridin-1(2H)-yl}-N-hydroxy-2-methyl-2-(methylsulfonyl)butanamide] are 16 µg/mL and 32 µg/mL.
With `CC(CCn1ccc(-c2ccc(OCCCN3CCCCC3)cc2)cc1=O)(C(=O)NO)S(C)(=O)=O` (stereo not shown) [Example 77], in experiment [1] (setting [3]), the EC-1 (MIC) was determined as 64 µg/mL. The PA-7 (MIC) in experiment [2] (setting [3]) was 64 µg/mL.
Regarding `CC(CCn1ccc(-c2ccc(OCCCN3CCCC3)cc2)cc1=O)(C(=O)NO)S(C)(=O)=O` (stereo not shown) [Example 78], in experiment [1] (setting [3]), the EC-1 (MIC) is over 64 µg/mL. In experiment [2] (setting [3]), this molecule came in with a PA-7 (MIC) of over 64 µg/mL.
Consider `CC(CCn1ccc(-c2ccc3[nH]ccc3c2)cc1=O)(C(=O)NO)S(C)(=O)=O` (stereo not shown) [Example 79], for which the EC-1 (MIC) in experiment [1] (setting [3]) amounted to 4 µg/mL. In addition, the PA-7 (MIC) in experiment [2] (setting [3]) came out at 4 µg/mL.
For the molecule `C/C(=N\O)c1ccc(-c2ccn(CCC(C)(C(=O)NO)S(C)(=O)=O)c(=O)c2)cc1` (stereo not shown) [Example 80, N-hydroxy-4-[4-{4-[(1E)-N-hydroxyethanimidoyl]phenyl}-2-oxopyridin-1(2H)-yl]-2-methyl-2-(methylsulfonyl)butanamide], in experiment [1] (setting [3]), the EC-1 (MIC) was 8 µg/mL. In experiment [2] (setting [3]), this molecule showed a PA-7 (MIC) of 32 µg/mL.
For `CC(CCn1ccc(-c2ccc(OCCCN3CCSCC3)cc2)cc1=O)(C(=O)NO)S(C)(=O)=O` (stereo not shown) [Example 81, N-hydroxy-2-methyl-2-(methylsulfonyl)-4-{2-oxo-4-[4-(3-thiomorpholin-4-ylpropoxy)phenyl]pyridin-1(2H)-yl}butanamide], in that order: 2 µg/mL and 4 µg/mL.
On the same counts, the results for `CC(CCn1ccc(-c2ccc(OCCCN3CCS(=O)(=O)CC3)cc2)cc1=O)(C(=O)NO)S(C)(=O)=O` (stereo not shown) [Example 82, 4-[4-{4-[3-(1,1-dioxidothiomorpholin-4-yl)propoxy]phenyl}-2-oxopyridin-1(2H)-yl]-N-hydroxy-2-methyl-2-(methylsulfonyl)butanamide] are 8 µg/mL and 32 µg/mL.
For `CC(CCn1ccc(-c2ccc(OCCCN3CCC(O)CC3)cc2)cc1=O)(C(=O)NO)S(C)(=O)=O` (stereo not shown) [Example 83, N-hydroxy-4-[4-{4-[3-(4-hydroxypiperidin-1-yl)propoxy]phenyl}-2-oxopyridin-1(2H)-yl]-2-methyl-2-(methylsulfonyl)butanamide], in that order: 32 µg/mL and 16 µg/mL.
Turning to `CC(CCn1ccc(-c2ccc(OCCCN3CC(O)C3)cc2)cc1=O)(C(=O)NO)S(C)(=O)=O` (stereo not shown) [Example 84, N-hydroxy-4-[4-{4-[3-(3-hydroxyazetidin-1-yl)propoxy]phenyl}-2-oxopyridin-1(2H)-yl]-2-methyl-2-(methylsulfonyl)butanamide], the EC-1 (MIC) in experiment [1] (setting [3]) is over 64 µg/mL. Moreover, the PA-7 (MIC) in experiment [2] (setting [3]) came out at 32 µg/mL.
On the same counts, the results for `CC(CCn1ccc(-c2ccc(OCCO)cc2F)cc1=O)(C(=O)NO)S(C)(=O)=O` (stereo not shown) [Example 85, 4-{4-[2-fluoro-4-(2-hydroxyethoxy)phenyl]-2-oxopyridin-1(2H)-yl}-N-hydroxy-2-methyl-2-(methylsulfonyl)butanamide] are 16 µg/mL and 16 µg/mL.
For `CC(CCn1ccc(-c2ccc(OCCCN3CCNC(=O)C3)cc2)cc1=O)(C(=O)NO)S(C)(=O)=O` (stereo not shown) [Example 86, N-hydroxy-2-methyl-2-(methylsulfonyl)-4-[2-oxo-4-{4-[3-(3-oxopiperazin-1-yl)propoxy]phenyl}pyridin-1(2H)-yl]butanamide], in that order: 16 µg/mL and 32 µg/mL.
For `CN1CCN(CCCOc2ccc(-c3ccn(CCC(C)(C(=O)NO)S(C)(=O)=O)c(=O)c3)cc2)CC1` (stereo not shown) [Example 87], in that order: 64 µg/mL and 32 µg/mL.
In experiment [1] (setting [3]), `CC(CCn1ccc(-c2ccc(OCCCc3cccnc3)cc2)cc1=O)(C(=O)NO)S(C)(=O)=O` (stereo not shown) [Example 88] returned an EC-1 (MIC) of 0.25 µg/mL. This molecule also had a PA-7 (MIC) in experiment [2] (setting [3]) of 2 µg/mL.
On the same counts, the results for `CC(CCn1ccc(-c2ccc(OCCCc3ccncc3)cc2)cc1=O)(C(=O)NO)S(C)(=O)=O` (stereo not shown) [Example 89] are 0.25 µg/mL and 2 µg/mL.
On the same counts, the results for `COc1cccc(-c2ccn(CCC(C)(C(=O)NO)S(C)(=O)=O)c(=O)c2)c1F` (stereo not shown) [Example 90] are 0.5 µg/mL and 2 µg/mL.
In experiment [1] (setting [3]), `CC(CCn1ccc(-c2cc3ccccc3[nH]2)cc1=O)(C(=O)NO)S(C)(=O)=O` (stereo not shown) [Example 91] displayed an EC-1 (MIC) of 4 µg/mL. Further, the PA-7 (MIC) in experiment [2] (setting [3]) worked out at 16 µg/mL.
For `CC(CCn1ccc(-c2ccc(OCCCn3cncn3)cc2)cc1=O)(C(=O)NO)S(C)(=O)=O` (stereo not shown) [Example 92, N-hydroxy-2-methyl-2-(methylsulfonyl)-4-[2-oxo-4-{4-[3-(1H-1,2,4-triazol-1-yl)propoxy]phenyl}pyridin-1(2H)-yl]butanamide], in that order: 8 µg/mL and 16 µg/mL.
For `CC(CCn1ccc(-c2ccc(OCCCN3CCC(F)(F)C3)cc2)cc1=O)(C(=O)NO)S(C)(=O)=O` (stereo not shown) [Example 93, 4-[4-{4-[3-(3,3-difluoropyrrolidin-1-yl)propoxy]phenyl}-2-oxopyridin-1(2H)-yl]-N-hydroxy-2-methyl-2-(methylsulfonyl)butanamide], in that order: 1 µg/mL and 8 µg/mL.
On the same counts, the results for `CC(CCn1ccc(-c2ccc(OCCN3CCOCC3)cc2)cc1=O)(C(=O)NO)S(C)(=O)=O` (stereo not shown) [Example 94] are 2 µg/mL and 4 µg/mL.
In experiment [1] (setting [3]), `CC(CCn1ccc(-c2ccc(-c3cc(CO)no3)cc2)cc1=O)(C(=O)NO)S(C)(=O)=O` (stereo not shown) [Example 95, N-hydroxy-4-[4-{4-[3-(hydroxymethyl)isoxazol-5-yl]phenyl}-2-oxopyridin-1(2H)-yl]-2-methyl-2-(methylsulfonyl)butanamide] showed an EC-1 (MIC) of 8 µg/mL. In experiment [2] (setting [3]), this molecule came in with a PA-7 (MIC) of 8 µg/mL.
In the case of `CC(CCn1ccc(-c2cccc(O)c2F)cc1=O)(C(=O)NO)S(C)(=O)=O` (stereo not shown) [Example 96], the EC-1 (MIC) in experiment [1] (setting [3]) was 64 µg/mL. The molecule also displayed a PA-7 (MIC) in experiment [2] (setting [3]) of over 64 µg/mL.
On the same counts, the results for `CC(CCn1ccc(-c2ccc(O)cc2)cc1=O)(C(=O)NO)S(C)(=O)=O` (stereo not shown) [Example 97, N-hydroxy-4-[4-(4-hydroxyphenyl)-2-oxopyridin-1(2H)-yl]-2-methyl-2-(methylsulfonyl)butanamide] are over 64 µg/mL and over 64 µg/mL.
`CC(CCn1ccc(-c2ccccc2)cc1=O)(C(=O)NO)S(C)(=O)=O` (stereo not shown) [Example 98, N-hydroxy-2-methyl-2-(methylsulfonyl)-4-(2-oxo-4-phenylpyridin-1(2H)-yl)butanamide]: the EC-1 (MIC) in experiment [1] (setting [3]) is 64 µg/mL. The molecule further yielded a PA-7 (MIC) in experiment [2] (setting [3]) of 32 µg/mL.

Source of the values: patent publication US8846933B2, “N-link hydroxamic acid derivatives useful as antibacterial agents” (Pfizer Inc., priority 2009, dated 2014).
